According to ChEMBL document CHEMBL1157865, “Synthesis and evaluation of SQ109 analogues as potential anti-tuberculosis candidates” (2010):
In brackets after ≈: the same amount, converted by molar mass.

Test system: Mycobacterium tuberculosis
Test: Antimycobacterial activity against Mycobacterium tuberculosis H37Rv ATCC 25618 by BACTEC 460 radiometric method
Type: functional

Compound | MIC
CC(C)=CCC/C(C)=C/CNCCNC1C2CC3CC(C2)CC1C3 (stereo unspecified) [SQ109] | 0.5 µM (≈ 0.165 µg/mL)
CC(C)CCCC(C)CCNCCNC12CC3CC(CC(C3)C1)C2 (stereo unspecified) | 0.5 µM (≈ 0.167 µg/mL)
CC(C)CCCC(C)CCNCCNC1C2CC3CC(C2)CC1C3 (stereo unspecified) | 1 µM (≈ 0.335 µg/mL)
CC(C)CCCC(C)CCCC(C)CCNCCNC1C2CC3CC(C2)CC1C3 (stereo unspecified) | 0.5 µM (≈ 0.202 µg/mL)
CC(C)=CCC/C(C)=C\CNCCNC12CC3CC(CC(C3)C1)C2 | 1 µM (≈ 0.331 µg/mL)
CC(C)=CCC/C(C)=C/CC/C(C)=C/CNCCNC1C2CC3CC(C2)CC1C3 (stereo unspecified) | 0.25 µM (≈ 0.0997 µg/mL)
